Test results from PMC4916434, “Evaluation of the inhibition potential of plumbagin against cytochrome P450 using LC-MS/MS and cocktail approach” (Scientific Reports, 2016).

Assays:
CYP1A2 = target: T1, CYP1A2 (Rattus norvegicus, UniProt P04799); experiment: CYP1A2 inhibition (phenacetin O-deethylation) in rat liver microsomes, cocktail LC-MS/MS; type: in vitro ADME
T1 construct: consisting of pooled HLMs (0.5 mg/ml) or RLMs (1 mg/ml) and an NADPH-regenerating system; from tissue; host or cells: rat liver microsomes prepared in house
T1 sequence (P04799 1-513): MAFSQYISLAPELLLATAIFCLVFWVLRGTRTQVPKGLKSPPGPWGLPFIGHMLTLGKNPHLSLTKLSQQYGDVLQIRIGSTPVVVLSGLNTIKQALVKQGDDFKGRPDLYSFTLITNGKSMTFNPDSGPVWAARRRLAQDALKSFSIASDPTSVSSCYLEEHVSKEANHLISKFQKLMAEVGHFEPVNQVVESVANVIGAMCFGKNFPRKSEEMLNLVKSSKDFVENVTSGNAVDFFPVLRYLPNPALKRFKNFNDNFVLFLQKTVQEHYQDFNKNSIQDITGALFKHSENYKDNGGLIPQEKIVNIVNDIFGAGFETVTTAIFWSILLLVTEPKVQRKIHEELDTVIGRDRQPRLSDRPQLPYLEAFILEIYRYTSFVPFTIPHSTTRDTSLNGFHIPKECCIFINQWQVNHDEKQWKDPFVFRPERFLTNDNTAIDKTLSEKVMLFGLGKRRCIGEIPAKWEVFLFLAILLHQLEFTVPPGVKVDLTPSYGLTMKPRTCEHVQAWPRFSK
Description: (§1) In this study, the rats were fasted overnight and killed by cervical dislocation before removal of the liver. The liver was excised, rinsed with ice-cold saline (0.9% NaCl w/v), weighed and homogenized in a […] Tris/KCl buffer (pH 7.4). Subsequently, the homogenate was centrifuged at 10,000 × g at 4 °C for 30 min. The supernatant was then centrifuged at 105,000 × g at 4 °C for 60 min. The pellet was reconstituted with […] Tris/KCl buffer (pH 7.4) and stored at −150 °C until use. The protein concentration of the liver microsomes was determined by a protein quantitative assay using bicinchoninic acid[22].
(§2) Microsomal incubation was carried out at 37 °C in a mixture of 200 μl in 0.05 M Tris/HCl buffer (pH 7.4) consisting of pooled HLMs (0.5 mg/ml) or RLMs (1 mg/ml) and an NADPH-regenerating system including MgCl2 (5 mM), G6P (10 mM), G6PDH (0.4 U/ml) and NADP (1 mM). Substrates were added into the incubation mixture and obtained the final concentrations (10 μM phenacetin for CYP1A2, 20 μM bupropion for CYP2B1/6, 20 μM tolbutamide for CYP2C9/11, 5 μM dextromethorphan for CYP2D1/6, 20 μM chlorzoxazone for CYP2E1 and 10 μM midazolam for CYP3A2/4), which were close to Km respectively. The proportion of organic solvent was not higher than 1% (v/v) in the incubation mixture. After pre-incubation for 5 min, the reaction was initiated by addition of NADP. Incubations were performed for 20 min, stopped by adding 200 μl ice-cold acetonitrile. And then 20 μl internal standard solution was added (3-acetamidophenol 2 μg/ml, chlorpropamide 2 μg/ml and mebendazole 2 μg/ml). The solution was mixed thoroughly for 3 min and centrifuged for 10 min at 16,000 × g at 4 °C. The supernatant (60 μl) was transferred to autosampler vials, and 2 μl was injected into LC-MS/MS system.
(§3) The IC50 (concentration of inhibitor to cause 50% inhibition of original enzyme activity) values were determined with the same incubation condition above. The specific concentrations of plumbagin were ranged from 0.1 μM to 50 μM. The IC50 values were calculated by plotting relative activities over the logarithm of plumbagin concentrations using GraphPad Prism 5.0 (GraphPad software Inc., CA, USA).
(§4) Cocktail probe substrates were then added and incubated for 20 min. Reactions were stopped with 200 μl ice-cold acetonitrile. The samples were treated according to the microsomal incubation method and then injected into LC-MS/MS for analysis.
(§5) Kinetic studies were performed for determining the types of inhibition on CYP by plumbagin. Pooled HLMs (0.5 mg/ml) or RLMs (1 mg/ml) with plumbagin (1 μM, 2 μM, 5 μM and 10 μM) were incubated in 0.05 M Tris/HCl buffer (pH 7.4) for 20 min at 37 °C. A series of concentrations for cocktail probe substrates were used: 2.5–20 μM phenacetin for CYP1A2; 5–40 μM bupropion for CYP2B1/6; 5–40 μM tolbutamide for CYP2C9/11; 1.25–10 μM dextromethorphan for CYP2D1/6; 5–40 μM chlorzoxazone for CYP2E1; 2.5–80 μM midazolam for CYP3A2; and 0.625–5 μM midazolam for CYP3A4. Enzyme kinetics as well as statistical analysis were performed using GraphPad Prism 5.0.
(§6) All data were presented as mean ± SD. The IC50 values were fitted by non-linear regression analysis using GraphPad Prism 5.0. The kinetic parameters were obtained by fitting velocity data to kinetic models (Michaelis-Menten) using GraphPad Prism 5.0. The Lineweaver-Burk Plot (the reciprocal of reaction velocities versus the reciprocal of substrates concentrations) was used to determine the quality of fit to a specific inhibition model. The inhibition constant (Ki) was obtained by a secondary plot using the slopes of the primary Lineweaver-Burk Plot (Km/Vmax versus inhibitor concentrations). αKi was obtained from a secondary plot using the y-intercepts of the Lineweaver-Burk plot (1/Vmax versus inhibitor concentrations). All results were analyzed in quadruplicate. One-way analysis of variance was used to estimate the significance of differences. […]

[1] = rat, in vivo, po, 100 mg/kg; cited from earlier work
CYP2B1 = target: T2, CYP2B1 (Rattus norvegicus, UniProt P00176); type: in vitro ADME
T2 construct: consisting of pooled HLMs (0.5 mg/ml) or RLMs (1 mg/ml) and an NADPH-regenerating system; from tissue; host or cells: rat liver microsomes prepared in house
T2 sequence (P00176 1-491): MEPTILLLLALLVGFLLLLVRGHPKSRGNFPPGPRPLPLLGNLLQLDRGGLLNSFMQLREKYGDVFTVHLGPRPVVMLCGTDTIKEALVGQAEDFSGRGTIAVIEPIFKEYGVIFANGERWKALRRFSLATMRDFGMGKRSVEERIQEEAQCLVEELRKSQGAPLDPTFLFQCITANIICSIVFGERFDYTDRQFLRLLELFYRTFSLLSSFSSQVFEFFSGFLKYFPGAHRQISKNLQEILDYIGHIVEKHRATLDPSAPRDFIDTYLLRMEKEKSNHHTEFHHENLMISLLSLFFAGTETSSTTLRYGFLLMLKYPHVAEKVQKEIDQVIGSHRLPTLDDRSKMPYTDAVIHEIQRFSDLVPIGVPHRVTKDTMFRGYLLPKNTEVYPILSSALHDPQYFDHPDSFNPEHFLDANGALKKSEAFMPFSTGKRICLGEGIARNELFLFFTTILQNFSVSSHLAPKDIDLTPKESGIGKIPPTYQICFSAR
Description: as §1, §2, §3, §4, §5, §6

SMILES: CC1=CC(=O)c2c(O)cccc2C1=O [plumbagin, 5-hydroxy-2-methyl-1,4-naphthoquinone]
- IC50 (CYP1A2): 2.65 µM
- Ki (CYP1A2): 2.64 µM
- α (CYP1A2; RLMs): 0.31
- Type of inhibition (CYP1A2; RLMs, Lineweaver-Burk): mixed-type
- Time-dependent inhibition (CYP1A2; RLMs, pre-incubation with NADPH 0, 5, 10, 20 min, plumbagin 0.2, 0.5, 1 μM): no time-dependent inhibition
- αKi (CYP1A2; RLMs, secondary plot of y-intercepts, phenacetin 2.5-20 μM): 8.51 µM
- Cmax [1]: 1860 nM
- area under the curve (AUC) in the plasma [1]: 271.9 µg·min/mL
- half-life (t1/2) in the plasma [1]: 17.13 h
- peak concentration (Cmax) in the plasma [1]: 350 ng/mL
- IC50 (CYP2B1): 5.86 µM
- Ki (CYP2B1): 9.93 µM
- Type of inhibition (CYP2B1): competitive
